According to PubChem BioAssay AID2060500 (Molecular Pharmacology Branch, DTP, NCI, 2025):
Values joined by “and” are separate entries in the source; they are usually repeats but may differ in a detail not shown here. Identical values can stand only once.

Tested on: 596521-263-R-J1-PDC complex spheroids, viability % of control
Test: Anticancer human tumor 596521-263-R-J1-PDC patient-derived soft tissue sarcoma cell line growth inhibition [GQUAD]
Conditions: for viability, T/C: stronger effect = lower value
Description: DNA G-quadruplex Stabilizer Agents in Combinations in Complex Spheroids
A high-throughput screen of multi-cell type tumor spheroids was designed to identify active combinations of DNA G-quadruplex stabilizer agents and targeted small molecules. Complex spheroids include a stromal component modeled by human endothelial cells (HUVEC) and fibroblasts modeled by human mesenchymal stem cells (MSCs). The concentration ranges selected for each drug and investigational agent were based upon clinically achievable concentrations if the clinical Cmax of the agent was known.
Compounds. The drugs and investigational agents: pidnarulex (CX-5461; NSC782164), APTO-253 (NSC789042), BRACO-19 (NSC847499), peposertib (NSC802822), ceralasertib (NSC780249), elimusertib (NSC800525), camonsertib (NSC841442), AZD-1390 (NSC803789), olaparib (NSC753686), talazoparib (NSC767125), ART-558 (NSC835418), sotorasib (NSC818433), MRTX-1133 (NSC836407), SN-38 (NSC673596), topotecan (NSC609699), etoposide (NSC141540), doxorubicin (NSC123127), gemcitabine (NSC613327), 5-fluorouracil (NSC19893), paclitaxel (NSC125973), vemurafenib (NSC761431), panobinostat (NSC761190), R-306465 (JNJ-16241199; NSC773264), adavosertib (NSC754352), TP-3654 (NSC805149), carboplatin (NSC241240), KSQ-4279 (NSC840948), and staurosporine (NSC755774) were obtained from the National Cancer Institute (NCI) Developmental Therapeutics Program Chemical Repository (34). The FDA-approved anticancer drug set is available from the NCI Developmental Therapeutics Program. […] The stock solutions were prepared in dimethyl sulfoxide (DMSO, Sigma-Aldrich, St. Louis, MO, cat. D2650) at 800-fold the tested concentration and stored at -70 degrees C prior to their use. All drugs and investigational agents were tested over a range starting from a high concentration at or near the clinical Cmax and decreasing in half-log increments. If the clinical Cmax for an agent had not been determined, the highest concentration tested was 10 microM.
2.3 Cell Culture. All cells were maintained in an incubator at 37 degrees C and 5% CO2 with 95% humidity. The PDC lines were cultured according to standard operating procedures established by the NCI PDMR. All PDCs were thawed and cultured in Matrigel-coated flasks prepared with a working solution of 1X Ham's F-12 nutrient mix, without supplementation (Invitrogen, cat. 11765054), 100 U/mL penicillin-streptomycin (Invitrogen, cat. 15140122), and 2.5% Matrigel (Corning Inc., cat. 354248) for the first three passages. The 857933-349-R-J2-PDC line was cultured in 6C/Colon 1B media, which includes advanced DMEM/F-12 (Thermo Fisher Scientific, cat. 12634028), 10 mM HEPES (Thermo Fisher Scientific, cat. 15630080), 1X GlutaMAX supplement (Thermo Fisher Scientific, cat. 35050061), 0.1 mg/mL primocin (InvivoGen, cat. ant-pm-2), 10% defined fetal bovine serum, heat inactivated (HyClone Laboratories Inc., cat. SH30070.03HI), 50% L-WRN conditioned media (ATCC, cat. CRL-3276), 1.25 mM N-Acetyl-L-cysteine (Sigma-Aldrich, cat. A9165), 10 mM nicotinamide (Sigma-Aldrich, cat. N0636), 1X B-27 supplement (Thermo Fisher Scientific, cat. 17504044), 1X N-2 supplement (Thermo Fisher Scientific, cat. 17502048), 10 microM Y-27632 dihydrochloride (Tocris Bioscience, cat. 1254), and 50 ng/mL human EGF recombinant protein (Thermo Fisher Scientific, cat. PHG0311). The 485176-168-R4-J1-PDC line was cultured in Panc media, which includes all 6C/Colon 1B media components plus 100 ng/mL human FGF-10 (Thermo Fisher Scientific, cat. 100-26), 500 nM SB-431542 (Selleckchem, cat. S1067), and gastrin (Tocris, cat. 3006).
[…]
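Also: spheroids exposed to drugs for 7 days before viability reading.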

| SMILES | IC50 (curve of compound) | IC50 (compound alone, run of 04/22/2024) [nM] | viability, T/C (compound 0.0316 µM) | viability, T/C (compound 0.1 µM) | viability, T/C (compound 0.316 µM) | viability, T/C (compound 1 µM) | viability, T/C (compound 3.16 µM) | viability, T/C (compound 10 µM) | viability, T/C (compound 0.000999 µM) | viability, T/C (compound 0.00316 µM) | viability, T/C (compound 0.00999 µM) | viability, T/C (compound 0.0999 µM) |
| --- | --- | --- | --- | --- | --- | --- | --- | --- | --- | --- | --- | --- |
| C#Cc1c(F)ccc2cc(O)cc(-c3ncc4c(N5CC6CCC(C5)N6)nc(OCC56CCCN5CC(F)C6)nc4c3F)c12 (stereo unspecified) | > 10000 nM and 1560 nM | – | 87.5% and 92.6% and 98.3% | 94.6% and 94.2% and 103% | 92.4% and 101% and 107% | 89.7% and 67.3% and 92.5% | 124% and 22.8% and 104% | 75% and 22.5% and 78.4% | – | – | – | – |
| C=CCn1c(=O)c2cnc(Nc3ccc(N4CCN(C)CC4)cc3)nc2n1-c1cccc(C(C)(C)O)n1 | – | – | 99.8% and 97.8% and 103% | 92% and 80.4% and 93.1% | 96.9% and 51.6% and 61.3% | 92.4% and 41% and 41.4% | 67.7% and 34.9% and 37% | 33.8% and 38.8% and 32.9% | – | – | – | – |
| CC(=O)O[C@H]1C(=O)[C@@]2(C)[C@H]([C@H](OC(=O)c3ccccc3)[C@]3(O)C[C@H](OC(=O)[C@H](O)[C@@H](NC(=O)c4ccccc4)c4ccccc4)C(C)=C1C3(C)C)[C@]1(OC(C)=O)CO[C@@H]1C[C@@H]2O | 78.3 nM and < 31.6 nM | – | 76.3% and 38.3% and 43.2% | 42.8% and 28.9% and 29% | 10.7% and 26.6% and 31.2% | – | – | – | – | – | – | – |
| CC1COCCN1c1cc(C2(S(C)(=N)=O)CC2)nc(-c2ccnc3[nH]ccc23)n1 (stereo unspecified) | > 10000 nM and 7960 nM | – | 95.1% and 98% and 118% | 110% and 95.7% and 101% | 84.8% and 84.3% and 101% | 83.6% and 72.9% and 77.3% | 73.7% and 63.8% and 58% | 52.1% and 46.3% and 51.5% | – | – | – | – |
| CCCS(=O)(=O)Nc1ccc(F)c(C(=O)c2c[nH]c3ncc(-c4ccc(Cl)cc4)cc23)c1F | – | – | 105% and 100% and 95.2% | 81.5% and 87% and 92.4% | 51.8% and 93% and 109% | 43% and 88.8% and 110% | 40% and 64.2% and 82.7% | 34.2% and 30.7% and 36.3% | – | – | – | – |
| CN(C)c1ccc(Nc2c3ccc(NC(=O)CCN4CCCC4)cc3nc3cc(NC(=O)CCN4CCCC4)ccc23)cc1 | – | > 10000 | 102% [middle of 12 runs] | 105% [middle of 12 runs] | 104% [middle of 12 runs] | 105% [middle of 12 runs] | 95.9% [middle of 12 runs] | 67% [middle of 12 runs] | – | – | – | – |

Second part, led by results:

| IC50 (curve of compound) | IC50 (compound alone, run of 04/22/2024) [nM] | SMILES | viability, T/C (compound 0.0316 µM) | viability, T/C (compound 0.1 µM) | viability, T/C (compound 0.316 µM) | viability, T/C (compound 1 µM) | viability, T/C (compound 3.16 µM) | viability, T/C (compound 10 µM) | viability, T/C (compound 0.000999 µM) | viability, T/C (compound 0.00316 µM) | viability, T/C (compound 0.00999 µM) | viability, T/C (compound 0.0999 µM) |
| --- | --- | --- | --- | --- | --- | --- | --- | --- | --- | --- | --- | --- |
| > 10000 nM | – | C=CC(=O)N1CCN(c2nc(=O)n(-c3c(C)ccnc3C(C)C)c3nc(-c4c(O)cccc4F)c(F)cc23)C(C)C1 (stereo unspecified) | 107% and 105% and 114% | 92.7% and 91.9% and 95.5% | 96.9% and 101% and 108% | 114% and 120% and 118% | 96.2% and 97% and 113% | 73.2% and 66.5% and 84.6% | – | – | – | – |
| > 10000 nM and 1160 nM and 1540 nM | – | CC(C)(O)C1CCC(Nc2ccc3ncc(-c4cccc(C(F)(F)F)c4)n3n2)CC1 (stereo unspecified) | 106% and 99.4% and 95.7% | 98.4% and 97.7% and 91.8% | 103% and 93.5% and 85.9% | 97.1% and 55.2% and 69.5% | 108% and 10.6% and 16.7% | 84% and 18.1% and 15.5% | – | – | – | – |
| > 10000 nM | – | CC(C)n1c(=O)n(C)c2cnc3cc(F)c(-c4ccc(OCCCN5CCCCC5)nc4)cc3c21 | 95.5% and 105% and 103% | 92.9% and 102% and 101% | 82.4% and 94.7% and 101% | 91.1% and 106% and 92% | 81.2% and 87.7% and 86.1% | 61.1% and 71.2% and 64.3% | – | – | – | – |
| 452 nM and 275 nM and 412 nM | – | CC1COCCN1c1cc(-c2ccnn2C)c2ccnc(-c3ccn[nH]3)c2n1 (stereo unspecified) | 78.3% and 73.2% and 70.2% | 59.2% and 55.7% and 62.7% | 57.2% and 47.1% and 50.2% | 43.9% and 42.6% and 44.5% | 30.3% and 34% and 31.6% | 24.4% (2×) and 23.9% | – | – | – | – |
| 226 nM and 195 nM and 173 nM | – | CC1COCCN1c1cc(C2(O)CC3CCC(C2)O3)c2cnn(-c3ccn[nH]3)c2n1 (stereo unspecified) | 68.2% and 80.2% and 69% | 66.9% and 48.7% and 53.4% | 39.5% and 49.8% and 44.3% | 32.1% and 33.8% and 33.2% | 21.9% and 25.7% and 22.9% | 12.9% and 16.6% and 12.2% | – | – | – | – |
| > 316 nM and 93.3 nM | – | CC[C@@]1(O)C(=O)OCc2c1cc1n(c2=O)Cc2cc3c(CN(C)C)c(O)ccc3nc2-1 | 78.6% and 59.5% and 63.7% | – | 52.4% and 46.4% and 50.7% | – | – | – | 102% and 100% and 105% | 102% and 88.7% and 106% | 87.2% and 87.7% and 96.7% | 57.2% and 51.5% and 58.3% |
| 10.5 nM and 6.82 nM and 6.81 nM | – | CCc1c2c(nc3ccc(O)cc13)-c1cc3c(c(=O)n1C2)COC(=O)[C@]3(O)CC | 34.9% and 28.8% and 33.9% | – | 6.84% and 7.73% and 9.09% | – | – | – | 62% and 58.6% and 64.2% | 58% and 49.7% and 56.6% | 51.5% and 50.8% and 46.9% | 19.2% and 15.7% and 20.2% |
